What was measured:
[1] = target: T1, human PPAR-γ-ligand binding domain (LBD) (Homo sapiens, UniProt P37231); assay: GAL4-PPAR-γ-LBD luciferase reporter assay in BE(2)C cells; type: cell-based; settings: various concentrations up to 50 μM, 20 hours, FIGS. 1A and 1B
T1 construct: expressed in transfected cells; host or cells: BE(2)C cells
T1 sequence (P37231 238-503 limits assumed): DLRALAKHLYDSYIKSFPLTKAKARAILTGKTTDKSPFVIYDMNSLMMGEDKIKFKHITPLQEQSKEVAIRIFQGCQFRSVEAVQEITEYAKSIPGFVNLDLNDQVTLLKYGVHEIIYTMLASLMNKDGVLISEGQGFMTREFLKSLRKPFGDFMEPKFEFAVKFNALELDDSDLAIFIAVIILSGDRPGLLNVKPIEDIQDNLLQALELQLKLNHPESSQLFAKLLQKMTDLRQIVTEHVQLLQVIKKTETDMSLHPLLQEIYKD
Procedure: (§1) To examine whether amodiaquine serves as a ligand of PPAR-γ or PPAR-α, three types of vectors were used.
(§2) The activation of luciferase expression was detected 6 hours after BE(2)C cells were transformed with a GAL4-PPAR-γ-LBD plasmid or GAL4-PPAR-α-LBD plasmid, the GAL4-luciferase vector and the β-galactosidase vector, and growing amodiaquine-treated cells for 20 hours in a 5% CO2 incubator.

PPAR-α-LBD = target: T2, PPAR-α-LBD (Homo sapiens, UniProt Q07869); assay: GAL4-PPAR-α-LBD luciferase reporter assay in BE(2)C cells; type: cell-based; settings: various concentrations up to 50 μM, 20 hours, FIGS. 1C and 1D
T2 construct: expressed in transfected cells; host or cells: BE(2)C cells
T2 sequence (Q07869 239-466 limits assumed): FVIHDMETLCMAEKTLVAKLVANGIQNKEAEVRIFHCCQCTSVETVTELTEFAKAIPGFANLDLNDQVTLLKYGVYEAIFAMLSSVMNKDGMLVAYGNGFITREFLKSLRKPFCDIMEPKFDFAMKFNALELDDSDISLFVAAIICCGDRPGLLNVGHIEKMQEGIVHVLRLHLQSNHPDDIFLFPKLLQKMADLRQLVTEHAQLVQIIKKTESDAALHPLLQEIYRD
Procedure: as §1, §2

[2] = system: high fat-induced obesity mice; assay: Intraperitoneal insulin tolerance test (IPITT) in high fat-induced obesity mice; type: in vivo, mouse; settings: 0.5 U/kg insulin i.p.; for time of lowest blood glucose level (IPITT): substance given after long-term HFD induction, FIG. 7C; for blood glucose concentration after 2 hours (IPITT): HFD with simultaneous substance, FIG. 7B
Procedure: After 16-hour fasting, 0.5 U/kg of insulin was intraperitoneally administered to each animal in the controls and the experimental group, and a blood glucose concentration was measured every 30 minutes for 2 hours. For measurement of the blood glucose concentration, an IPITT was used.

KKAy mice [3] = assay: Intraperitoneal glucose tolerance test (IPGTT) in KKAy mice; type: in vivo, mouse; settings: 18 mg/kg daily oral for 6 weeks, 2 g/kg glucose i.p. after 16-hour fasting, control 293.2 mg/dl
Procedure: (§3) Following one-week acclimation, 5-week-old KKAy mice purchased from Saeronbio Inc. were divided into two groups of 5.
(§4) The first group was set as a negative control by administering PBS, and the second group was treated by daily oral administration of amodiaquine at 18 mg/kg for 6 weeks.
(§5) Fasting blood glucose was measured for 6 weeks from whole blood taken from the caudal vein of each mouse 1, 2, 5 and 6 weeks after 12-hour fasting. For blood glucose measurement, a blood glucose strip (Green Cross, Gyeonggi-do, Korea) was used. […] In addition, to identify the blood glucose regulation effect, 2 g/kg of glucose was intraperitoneally injected into the mice of the control and experimental group after 16-hour fasting, and the level of blood glucose was measured every 30 minutes for 2 hours. For measurement of the blood glucose concentration, an intraperitoneal glucose tolerance test (IPGTT) was used.

KKAy mice [4] = assay: Glycated hemoglobin (HbA1C) content in KKAy mice; type: in vivo, mouse; settings: 18 mg/kg daily oral for 6 weeks, FIG. 4
Procedure: To detect a change in glycated hemoglobin content in mice by amodiaquine, after 1-week acclimation, 5-week-old KKAy mice were purchased from Saeronbio Inc. were divided into two groups of 5. Like in Example 3, the first group of mice were set as a control by administering PBS, and the second group was treated by daily oral administration of amodiaquine at 18 mg/kg for 6 weeks using a 1 ml syringe. To detect an effect of amodiaquine on reducing glycated hemoglobin content, whole blood was taken from the caudal vein of each mouse in the control and experimental group, injected into an easy A1c cartridge, and then assessed using an easy A1c analyzer (Asan Pharmaceutical Co., Ltd., Seoul, Korea). An independent group t-test was performed on the experimental group and the control to identify significance in the test results, and a statistically significant difference was shown (**p<0.005).

[5] = Body weight of high fat-induced obesity mice; type: in vivo, mouse; settings: C57BL/6 mice, amodiaquine 20 mg/kg
Procedure: The mice were divided into groups of 7, freely fed water and diets in a cage, and then acclimated for 1 week before an experiment. […] [table] […] An average body weight was calculated by dividing the sum of weights of 7 mice per group by the number of mice.

KKAy mice [6] = assay: Fasting blood glucose in KKAy mice; type: in vivo, mouse; settings: 18 mg/kg daily oral for 6 weeks, control 132.4 mg/dl
Procedure: as §3, §4, §5

[7] = system: high fat-induced obesity mice; assay: Oral glucose tolerance test (OGTT) in high fat-induced obesity mice; type: in vivo, mouse; settings: HFD mice with amodiaquine; 2 g/kg glucose oral after 16-hour fasting; HFD control 180.5 mg/dl; FIG. 7A
Procedure: After 16-hour fasting, 2 g/kg of glucose was orally administered to each animal in the controls and experimental group, and a blood glucose concentration was measured every 30 minutes for 2 hours. For measurement of the blood glucose concentration, an OGTT was used.

[8] = system: high fat-induced obesity mouse; assay: 4° C. cold test (thermal production) in high fat-induced obesity mice; type: in vivo; settings: HFD mice, 14 weeks, amodiaquine 20 mg/kg; 4° C. for up to 6 hours; versus high fat obesity-induced mouse; FIG. 6
Procedure: To measure a thermal production capability with respect to mice fed a high fat diet for 14 weeks among the experimental animals designed in Example 5, a 4° C. cold test was performed (Spiegelman B. M. et al., Cell 92: 829-839, 1998). Hereinafter, the measurement method will be described in detail. A body temperature of mice in the high fat-induced obesity mouse groups was measured before being exposed to 4° C. and recorded as a test start temperature, and then the mice were exposed to 4° C. for up to 6 hours, followed by measuring a body temperature. The body temperature was measured using a rectal thermometer for a mouse (testo 925, Germany) A thermal production value indicated a temperature measured every hour.

[9] = system: liver of the high fat-induced obesity mouse; assay: Fatty liver histology (hematoxylin-eosin) in high fat-induced obesity mice; type: in vivo; settings: HFD with amodiaquine for 14 weeks; FIG. 8
Procedure: Among the experimental animals designed in Example 5, mice in the high fat-induced obesity mouse group fed a high fat diet for 14 weeks were sacrificed by cervical spine dislocation, fixed on a dissection stand, and subjected to abdominal dissection with a scalpel to extract the liver. The extracted liver tissue was fixed in a 10% formalin solution to prevent contracted deformation. After the fixed tissue was washed with running water after 24 hours, general tissue dehydration, clearing and impregnation were performed using an automatic tissue processor (6460B, Sakura, Japan) for 14 hours, and manufacture of paraffin blocks and cooling were performed using an automated embedding device (Tissue-Tex, Japan). The manufactured paraffin blocks were continuously sliced to a thickness of 4 to 5 μm in a vertical direction of the tissue using a rotary microtome 2040 (Japan), and attached to slides after processing using a water bath and a slide warming table. The thin tissue section was stained with hematoxylin, an excessively-stained part was washed with running tap water, and then the resulting section was dipped in 1% HCl and a 70% A/C solution 3 to 5 times to stain the nuclei blue. […]

C2C12 myotube cells = assay: Glucose uptake ([3H]2-DOG) evaluation test in C2C12 myotube cells; type: cell-based, mouse; settings: C2C12 myotubes, 10 and 30 μM amodiaquine for 24 hours, compared with 50 μM rosiglitazone; FIG. 2
Procedure: Phosphorylation of insulin receptors occurs due to signal transduction by insulin in muscle, adipose or liver cells, and therefore when various proteins located downstream are phosphorylated, glucose uptake increases resulting in reduced blood glucose. A glucose uptake evaluation test was performed to identify whether amodiaquine is effective in diabetes. C2C12 myoblasts, which are muscle cells, were cultured in 10% […]-containing DMEM. When the cell density reached approximately 80 to 90%, the medium was replaced with fresh 2% horse serum-containing DMEM, and cell differentiation of the C2C12 myoblasts to myotubes was induced to make them completely differentiated, followed by carrying out an experiment. […] Washing was repeated three times every twenty minutes. Subsequently, 1 ml of KRP buffer was injected, a solution (0.2 mM, 0.2 μCi) prepared by dissolving unlabeled 2-DOG and [^3H]2-DOG (Amersham Pharmacia) in KRP buffer was added at 37° C. to allow treatment for exactly 10 minutes. The resulting cells were washed with 3 ml of cold phosphate buffered saline (PBS) to stop a glucose uptake reaction, further washed twice with PBS, air-dried for approximately 1 hour, and lyzed with 1 ml of 0.1% SDS by pipetting, and then 300 μl of the lysate was obtained to detect radioactivity using a liquid scintillation counter (Perkin Elmer, USA).

SMILES | PPAR-γ activity (luciferase expression) [1] | PPAR-α activity (luciferase expression) (PPAR-α-LBD) | time of lowest blood glucose level (IPITT) [2] | blood glucose concentration after 2 hours (IPITT) [2] | further results
CCN(CC)CCCC(C)Nc1ccnc2cc(Cl)ccc12 (stereo not drawn) [chloroquine, 7-chloro-4-(4-diethylamino-1-methylbutylamino)quinoline] | PPAR-γ activity was not shown | did not show the PPAR-α activity | – | – | –
CN(CCOc1ccc(CC2SC(=O)NC2=O)cc1)c1ccccn1 (stereo not drawn) [rosiglitazone] | – | – | 60 min | – | –
Cc1cccc(Nc2cc(Cl)nc(SCC(=O)O)n2)c1C [WY-14,643] | PPAR-γ activity was not shown | – | – | maintained lower than the fasting blood glucose concentration | –
CCN(CC)Cc1cc(Nc2ccnc3cc(Cl)ccc23)ccc1O [amodiaquine, 4-[(7-chloroquinolin-4-yl)amino]-2-[(diethylamino)methyl]phenol] | higher concentration-dependent PPAR-γ activity | high concentration-dependent PPAR-α activity | 30 min | maintained lower than the fasting blood glucose concentration | blood glucose concentration 2 hours after glucose loading (IPGTT) (KKAy mice [3]): 207 mg/dL; production of glycated hemoglobin relative to the control mice (KKAy mice [4]): ~69%; body weight versus high fat-induced obesity mouse (prevention) ([5]; HFD with substance for 14 weeks, FIG. 5A): significantly lower than that of the high fat-induced obesity mouse; body weight versus high fat-induced obesity mouse (treatment) ([5]; substance for 7 weeks after 15-week HFD induction, rosiglitazone 50 mg/kg, FIG. 5C): significantly lower than that of the high fat-induced obesity mouse; fasting blood glucose concentration (KKAy mice [6]): 100.2 mg/dL; blood glucose concentration 2 hours after glucose loading (OGTT) [7]: 139.1 mg/dL; body temperature on exposure to 4° C. (thermal production) [8]: less decreased in body temperature; liver appearance (fat accumulation, hematoxylin-eosin) [9]: almost the same appearance as that of a normal mouse; glucose uptake (C2C12 myotube cells): further increased than that in the rosiglitazone-treated group
